Laboratory results reported in PubChem BioAssay (NCI).
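A five-concentration, 48-hour dose response in 96-well plates underlies each endpoint, interpolated linearly between surrounding concentrations. TGI marks complete inhibition of growth.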

How the values were obtained:
Test in all cases: NCI anticancer screen, dose series, 48 h
[1] = tested on: HCT-15 colon
[2] = tested on: HOP-62 NSCLC
[3] = tested on: CAKI-1 renal
[4] = tested on: SK-MEL-5 melanoma
[5] = tested on: A549 NSCLC
[6] = tested on: UACC-62 melanoma
[7] = tested on: U251 CNS
[8] = tested on: OVCAR-8 ovarian
[9] = tested on: MDA-MB-231 breast
[10] = tested on: HCC-2998 colon
[11] = tested on: 786-0 renal
[12] = tested on: EKVX NSCLC
[13] = tested on: T-47D breast
[14] = tested on: NCI-H460 lung
[15] = tested on: SF-295 CNS
[16] = tested on: SNB-19 CNS
[17] = tested on: COLO 205 colon
[18] = tested on: UACC-257 melanoma
[19] = tested on: CCRF-CEM leukemia
[20] = tested on: NCI-H226 lung
[21] = tested on: MDA-MB-435
[22] = tested on: M14 melanoma
[23] = tested on: OVCAR-4 ovarian
[24] = tested on: NCI/ADR-RES ovarian
[25] = tested on: RPMI-8226 leukemia
[26] = tested on: SN12C renal
[27] = tested on: HOP-92 NSCLC
[28] = tested on: DU-145 prostate
[29] = tested on: SNB-75 CNS
[30] = tested on: BT-549 breast
[31] = tested on: HS 578T breast
[32] = tested on: TK-10 renal
[33] = tested on: NCI-H23 lung
[34] = tested on: UO-31 renal
[35] = tested on: HCT-116 colon
[36] = tested on: NCI-H522 lung
[37] = tested on: MCF7 breast
[38] = tested on: MDA-N
[39] = tested on: SF-268 CNS
[40] = tested on: LOX IMVI melanoma
[41] = tested on: SK-MEL-28 melanoma
[42] = tested on: SK-OV-3 ovarian
[43] = tested on: RXF 393 renal
[44] = tested on: K-562 leukemia
[45] = tested on: A498 renal
[46] = tested on: IGROV1 ovarian
[47] = tested on: SF-539 CNS
[48] = tested on: MOLT-4 leukemia
[49] = tested on: OVCAR-5 ovarian
[50] = tested on: PC-3 prostate
[51] = tested on: SW-620 colon
[52] = tested on: MALME-3M melanoma
[53] = tested on: OVCAR-3 ovarian
[54] = tested on: HT29 colon
[55] = tested on: HL-60(TB) leukemia
[56] = tested on: KM12 colon
[57] = tested on: SR leukemia
[58] = tested on: SK-MEL-2 melanoma
[59] = tested on: ACHN renal

With `Clc1nc(Cl)c(-c2ccccc2)c(Cl)n1` the TGI [1] was 5.01 µM, the TGI [2] was 33 µM and the TGI [3] was 3.33 µM. For the same compound, the TGI [4] was 9.36 µM, the TGI [5] was 36.1 µM and the TGI [6] was 10.7 µM. It also gave a TGI [7] of 10 µM, a TGI [8] of 10.6 µM and a TGI [9] of 10.7 µM. For the same compound, the TGI [10] was 5.32 µM, the TGI [11] was 6.55 µM and the TGI [12] was 3.46 µM. It also gave a TGI [13] of 9.28 µM, a TGI [14] of 35.9 µM and a TGI [15] of 27.2 µM. The TGI [16] was 28.5 µM, the TGI [17] was 3.6 µM and the TGI [18] was 7.65 µM. It also gave a TGI [19] of 8.28 µM, a TGI [20] of 5.76 µM and a TGI [21] of 9.55 µM. For the same compound, the TGI [22] was 3.33 µM, the TGI [23] was 6.55 µM and the TGI [24] was 11 µM. The TGI [25] was 6.16 µM, the TGI [26] was 8.84 µM and the TGI [27] was 11.4 µM. For the same compound, the TGI [28] was 26.4 µM, the TGI [29] was greater than 54.8 µM and the TGI [30] was 7.09 µM. For the same compound, the TGI [31] was greater than 100 µM, the TGI [32] was 22.2 µM and the TGI [33] was 12 µM. The TGI [34] was 9.08 µM, the TGI [35] was 3.6 µM and the TGI [36] was 3.24 µM. For the same compound, the TGI [37] was 9.45 µM, the TGI [38] was 6.67 µM and the TGI [39] was greater than 29.9 µM. It also gave a TGI [40] of 3.73 µM, a TGI [41] of 19.3 µM and a TGI [42] of 23.3 µM. The TGI [43] was 5.58 µM, the TGI [44] was greater than 35 µM and the TGI [45] was 30.1 µM. The TGI [46] was 14 µM, the TGI [47] was 10.9 µM and the TGI [48] was greater than 100 µM. For the same compound, the TGI [49] was 9.88 µM, the TGI [50] was 16.5 µM and the TGI [51] was 5.34 µM. The TGI [52] was 4.38 µM, the TGI [53] was 7.71 µM and the TGI [54] was 49.3 µM. It also gave a TGI [55] of 4.77 µM, a TGI [56] of 14.6 µM and a TGI [57] of 6.85 µM.

With `Cc1cc2nc(-c3c(F)cccc3F)n(Cc3c(F)cccc3F)c2cc1C` the TGI [1] was 27.6 µM, the TGI [2] was 28.7 µM and the TGI [3] was 37.7 µM. It also gave a TGI [4] of 26.5 µM, a TGI [58] of 29.6 µM and a TGI [5] of 28.1 µM. It also gave a TGI [7] of 24.1 µM, a TGI [8] of 29.5 µM and a TGI [9] of 31 µM. It also gave a TGI [10] of 21.4 µM, a TGI [11] of 31.8 µM and a TGI [12] of 22.7 µM. It also gave a TGI [13] of 47.2 µM, a TGI [14] of 49.7 µM and a TGI [15] of 27.9 µM. For the same compound, the TGI [16] was 42.7 µM, the TGI [17] was 30.7 µM and the TGI [18] was 30 µM. For the same compound, the TGI [19] was 60.9 µM, the TGI [20] was 35.1 µM and the TGI [21] was 32.8 µM. The TGI [22] was 25.2 µM, the TGI [23] was 40.1 µM and the TGI [24] was 44.9 µM. It also gave a TGI [25] of 24 µM, a TGI [26] of 33.5 µM and a TGI [27] of 30 µM. The TGI [28] was 50.5 µM, the TGI [29] was 26.1 µM and the TGI [30] was 27.9 µM. It also gave a TGI [31] of 46.7 µM, a TGI [32] of 56.6 µM and a TGI [33] of 39.9 µM. It also gave a TGI [34] of 23.3 µM, a TGI [59] of 35.4 µM and a TGI [35] of 24.4 µM. For the same compound, the TGI [36] was 27.1 µM, the TGI [37] was 57.1 µM and the TGI [38] was 38.4 µM. It also gave a TGI [39] of 42.7 µM, a TGI [40] of 27.4 µM and a TGI [41] of 42.2 µM. It also gave a TGI [42] of 42.2 µM, a TGI [43] of 61 µM and a TGI [44] of 42.8 µM. For the same compound, the TGI [45] was 39.9 µM, the TGI [46] was 28.4 µM and the TGI [47] was 34.3 µM. For the same compound, the TGI [48] was 33.8 µM, the TGI [49] was 31.7 µM and the TGI [50] was 40.6 µM. The TGI [51] was 35 µM, the TGI [52] was 44 µM and the TGI [53] was 31.8 µM. For the same compound, the TGI [54] was 34 µM, the TGI [55] was 42.7 µM and the TGI [56] was 28.6 µM. It also gave a TGI [57] of 30.4 µM.

With `CCCCCC[C@H]1C(=O)O[C@H](C)[C@H](NC(=O)c2cccc(NC=O)c2OC)C(=O)O[C@@H](C)[C@@H]1OC(=O)CC(C)C` (tested in a mixture with another compound) the TGI [1] was greater than 100 µM, the TGI [2] was greater than 100 µM and the TGI [3] was 57.3 µM. For the same compound, the TGI [4] was 38.7 µM, the TGI [58] was greater than 100 µM and the TGI [5] was 21.4 µM. For the same compound, the TGI [6] was greater than 100 µM, the TGI [7] was 34.1 µM and the TGI [8] was 30.4 µM. For the same compound, the TGI [9] was 91.7 µM, the TGI [10] was greater than 100 µM and the TGI [11] was greater than 100 µM. It also gave a TGI [12] greater than 100 µM, a TGI [13] greater than 100 µM and a TGI [14] greater than 100 µM. The TGI [15] was greater than 100 µM, the TGI [17] was 34.7 µM and the TGI [18] was 55.7 µM. For the same compound, the TGI [19] was 85.3 µM, the TGI [20] was greater than 100 µM and the TGI [21] was greater than 100 µM. For the same compound, the TGI [22] was greater than 100 µM, the TGI [23] was 24.9 µM and the TGI [24] was 84.9 µM. For the same compound, the TGI [25] was greater than 100 µM, the TGI [26] was greater than 100 µM and the TGI [27] was 81.2 µM. It also gave a TGI [28] greater than 100 µM, a TGI [30] greater than 100 µM and a TGI [31] greater than 100 µM. The TGI [32] was 50.8 µM, the TGI [33] was 48.3 µM and the TGI [34] was greater than 100 µM. The TGI [59] was 49.2 µM, the TGI [35] was 50.3 µM and the TGI [36] was greater than 100 µM. The TGI [37] was 78.3 µM, the TGI [38] was greater than 100 µM and the TGI [39] was greater than 100 µM. It also gave a TGI [40] greater than 100 µM, a TGI [41] greater than 100 µM and a TGI [42] of 39.2 µM. For the same compound, the TGI [43] was greater than 100 µM, the TGI [44] was greater than 100 µM and the TGI [45] was 47.2 µM. The TGI [47] was 78.3 µM, the TGI [48] was greater than 100 µM and the TGI [49] was greater than 100 µM. For the same compound, the TGI [50] was greater than 100 µM, the TGI [51] was greater than 100 µM and the TGI [52] was greater than 100 µM. The TGI [53] was 22.5 µM, the TGI [54] was greater than 100 µM and the TGI [55] was greater than 100 µM. For the same compound, the TGI [56] was greater than 100 µM and the TGI [57] was 36 µM.

Work on `C=C1C(=O)O[C@H]2[C@H]3O[C@@H](C[C@@H]12)[C@@]1(C)CC[C@H](O1)C(C)=CCC[C@H]3C` yielded a TGI [1] of 3.2 µM, a TGI [2] of 19.1 µM and a TGI [3] of 2.56 µM. For the same compound, the TGI [4] was 2.81 µM, the TGI [58] was 4.11 µM and the TGI [5] was 6.96 µM. It also gave a TGI [6] of 4.05 µM, a TGI [7] of 2.97 µM and a TGI [8] of 3.1 µM. The TGI [9] was 3.14 µM, the TGI [10] was 3.25 µM and the TGI [11] was 2.67 µM. For the same compound, the TGI [12] was 3.32 µM, the TGI [13] was 6.3 µM and the TGI [14] was 7.26 µM. For the same compound, the TGI [15] was 17.9 µM, the TGI [16] was 19 µM and the TGI [17] was 3.47 µM. It also gave a TGI [18] of 3.59 µM, a TGI [19] of 1.98 µM and a TGI [20] of 7.02 µM. The TGI [21] was 2.92 µM, the TGI [22] was 3.15 µM and the TGI [23] was 3.27 µM. For the same compound, the TGI [24] was 3.33 µM, the TGI [25] was 2.46 µM and the TGI [26] was 4.05 µM. For the same compound, the TGI [27] was 3.45 µM, the TGI [28] was 2.86 µM and the TGI [29] was 5.65 µM. The TGI [30] was 2.07 µM, the TGI [31] was 8.95 µM and the TGI [32] was 2.93 µM. The TGI [33] was 2.96 µM, the TGI [34] was 2.77 µM and the TGI [59] was 2.88 µM. The TGI [35] was 4.29 µM, the TGI [36] was 3.42 µM and the TGI [37] was 3.63 µM. For the same compound, the TGI [38] was 3 µM, the TGI [39] was 2.95 µM and the TGI [40] was 2.89 µM. It also gave a TGI [41] of 3.36 µM, a TGI [42] of 16.2 µM and a TGI [43] of 3.75 µM. It also gave a TGI [44] of 3.09 µM, a TGI [45] of 3.15 µM and a TGI [46] of 3.83 µM. The TGI [47] was 3.07 µM, the TGI [49] was 11.5 µM and the TGI [50] was 2.97 µM. The TGI [51] was 7.41 µM, the TGI [52] was 3.15 µM and the TGI [53] was 2.7 µM. For the same compound, the TGI [54] was 3.33 µM, the TGI [55] was 1.03 µM and the TGI [56] was 3.76 µM. The TGI [57] was 0.28 µM.
